Assay results: patent publication US20260355196A1, “INHIBITORS AND DEGRADERS OF PIP4K PROTEIN” (Larkspur Biosciences, Inc., priority 2023, published 2026)
Like-named read-outs stand apart in the source and are kept apart here.

Biological target: T1, PIP4K2C (Homo sapiens, UniProt Q8TBX8)
T1 sequence (Q8TBX8 1-421): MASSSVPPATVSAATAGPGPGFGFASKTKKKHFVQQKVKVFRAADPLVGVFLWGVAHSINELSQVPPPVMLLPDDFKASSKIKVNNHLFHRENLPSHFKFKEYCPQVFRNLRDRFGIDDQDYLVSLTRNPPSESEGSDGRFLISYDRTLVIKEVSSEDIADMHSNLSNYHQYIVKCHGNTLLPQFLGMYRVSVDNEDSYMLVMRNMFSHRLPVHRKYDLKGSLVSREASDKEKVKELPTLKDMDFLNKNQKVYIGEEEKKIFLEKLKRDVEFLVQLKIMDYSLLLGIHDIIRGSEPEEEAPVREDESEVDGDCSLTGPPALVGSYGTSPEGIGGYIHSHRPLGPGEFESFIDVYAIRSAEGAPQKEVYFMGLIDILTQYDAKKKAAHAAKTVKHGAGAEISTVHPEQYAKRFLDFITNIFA
Assay: HiBiT PIP4K2C degradation assay in MOLT-4 cells (endogenous PIP4K2C C-terminally tagged with HiBiT)
Assay type: cell-based
Set-up: untagged in primary human PBMCs and monocyte-derived dendritic cells
Method in brief: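 Cells are plated onto compound dilutions (10 points, 3-fold, top 10 micromolar) and incubated 24 or 6 hours at 37 C. Lytic HiBiT detection then quantifies tagged endogenous PIP4K2C in MOLT-4, and a Hill fit yields DC50.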

[1] = 6 hours of incubation time, rather than 24 hours; MOLT-4, top concentration 10 micromolar; read-out: HiBIT-degradation MOLT4 PIP4k2C DC50 (6 hours, marked *)

| SMILES | DC50 [1] [nM] | DC50 (read-out: HiBIT-degradation MOLT4 PIP4k2C DC50 (6 hours, marked *); 6 hours of incubation time, rather than 24 hours; MOLT-4, top concentration 10 micromolar) [nM] |
| --- | --- | --- |
| O=C1CCC(Nc2ccc(C3CCN(C[C@H]4CC[C@H](COC(=O)N5CCC(Nc6ncc(F)c(-c7cccc(-n8ccccc8=O)c7)n6)CC5)CC4)CC3)c(F)c2)C(=O)N1 (stereo partly drawn) [Compound 644, trans-(4-((4-(4-((2,6-dioxopiperidin-3-yl)amino)-2-fluorophenyl)piperidin-1-yl)methyl)cyclohexyl)methyl 4-((5-fluoro-4-(3-(2-oxopyridin-1 (2H)-yl)phenyl)pyrimidin-2-yl)amino)piperidine-1-carboxylate] | < 500 |  |
| O=C1CCC(Nc2ccc(N3CCC(N4CCC(C(=O)N[C@H]5CC[C@H](Nc6ncc(F)c(-c7cccc(N8CCOCC8)c7)n6)CC5)CC4)CC3)c(F)c2)C(=O)N1 (stereo partly drawn) [Compound 645, trans-1′-(4-((2,6-dioxopiperidin-3-yl)amino)-2-fluorophenyl)-N-(4-((5-fluoro-4-(3-morpholinophenyl)pyrimidin-2-yl)amino)cyclohexyl)-[1,4′-bipiperidine]-4-carboxamide] | < 500 |  |
| Cn1nc(C2CCC(=O)NC2=O)c2ccc(C3CCN(CC4(O)CCN(C(=O)O[C@H]5CC[C@H](Nc6ncc(F)c(-c7cccc(-c8ccccc8)c7)n6)CC5)CC4)CC3)cc21 (stereo partly drawn) [Compound 646, trans-4-((4-([1,1′-biphenyl]-3-yl)-5-fluoropyrimidin-2-yl)amino)cyclohexyl 4-((4-(3-(2,6-dioxopiperidin-3-yl)-1-methyl-1H-indazol-6-yl)piperidin-1-yl)methyl)-4-hydroxypiperidine-1-carboxylate] | < 500 |  |
| Cn1nc(C2CCC(=O)NC2=O)c2ccc(C3CCN(CC4CCN(C(=O)O[C@H]5CC[C@H](Nc6ncc(F)c(-c7cccc(-c8ccccc8)c7)n6)CC5)CC4)CC3)cc21 (stereo partly drawn) [Compound 647, trans-4-((4-([1,1′-biphenyl]-3-yl)-5-fluoropyrimidin-2-yl)amino)cyclohexyl 4-((4-(3-(2,6-dioxopiperidin-3-yl)-1-methyl-1H-indazol-6-yl)piperidin-1-yl)methyl)piperidine-1-carboxylate] | < 500 |  |
| O=C1CCC(Nc2ccc(C3CCN(C4CCN(C(=O)O[C@H]5CC[C@H](Nc6ncc(F)c(-c7cccc(-n8ccccc8=O)c7)n6)CC5)CC4(F)F)CC3)c(F)c2)C(=O)N1 (stereo partly drawn) [Compound 648, trans-4-((5-fluoro-4-(3-(2-oxopyridin-1 (2H)-yl)phenyl)pyrimidin-2-yl)amino)cyclohexyl 4-(4-((2,6-dioxopiperidin-3-yl)amino)-2-fluorophenyl)-3′,3′-difluoro-[1,4′-bipiperidine]-1′-carboxylate] | > 5000 |  |
| O=C1CCC(Nc2ccc(N3CCC(N4CCC(C(=O)N[C@H]5CC[C@H](Nc6ncc(F)c(-c7cccc(-c8ccccc8)c7)n6)CC5)CC4)CC3)c(F)c2)C(=O)N1 (stereo partly drawn) [Compound 649, trans-N-(4-((4-([1,1′-biphenyl]-3-yl)-5-fluoropyrimidin-2-yl)amino)cyclohexyl)-1′-(4-((2,6-dioxopiperidin-3-yl)amino)-2-fluorophenyl)-[1,4′-bipiperidine]-4-carboxamide] | < 500 |  |
| O=C1CCC(Nc2ccc(N3CCN([C@H]4CC[C@H](CC(=O)N5CCC(Nc6ncc(F)c(-c7cccc(-n8ccccc8=O)c7)n6)CC5)CC4)CC3)c(F)c2)C(=O)N1 (stereo partly drawn) [Compound 650, trans-3-((3-fluoro-4-(4-(4-(2-(4-((5-fluoro-4-(3-(2-oxopyridin-1 (2H)-yl)phenyl)pyrimidin-2-yl)amino)piperidin-1-yl)-2-oxoethyl)cyclohexyl)piperazin-1-yl)phenyl)amino)piperidine-2,6-dione] | > 5000 |  |
| O=C1CCC(Nc2ccc(C3CCN(C4CCN(C(=O)O[C@H]5CC[C@H](Nc6ncc(F)c(-c7cccc(-c8ccccc8)c7)n6)CC5)CC4)CC3)c(F)c2)C(=O)N1 (stereo partly drawn) [Compound 651, trans-4-((4-([1,1′-biphenyl]-3-yl)-5-fluoropyrimidin-2-yl)amino)cyclohexyl 4-(4-((2,6-dioxopiperidin-3-yl)amino)-2-fluorophenyl)-[1,4′-bipiperidine]-1′-carboxylate] | < 500 |  |
| O=C1CCC(Nc2ccc(N3CCC(N4CC5(CN(C(=O)O[C@H]6CC[C@H](Nc7ncc(F)c(-c8cccc(-n9ccccc9=O)c8)n7)CC6)C5)C4)CC3)c(F)c2)C(=O)N1 (stereo partly drawn) [Compound 652, (trans)-4-((5-fluoro-4-(3-(2-oxopyridin-1 (2H)-yl)phenyl)pyrimidin-2-yl)amino)cyclohexyl 6-(1-(4-((2,6-dioxopiperidin-3-yl)amino)-2-fluorophenyl)piperidin-4-yl)-2,6-diazaspiro[3.3]heptane-2-carboxylate] |  | < 500 |
| CN(C(=O)[C@H]1CC[C@H](N2CCC(c3ccc(NC4CCC(=O)NC4=O)cc3F)CC2)CC1)[C@H]1CC[C@H](Nc2ncc(F)c(-c3cccc(-n4ccccc4=O)c3)n2)CC1 (stereo partly drawn) [Compound 653, trans-4-(4-(4-((2,6-dioxopiperidin-3-yl)amino)-2-fluorophenyl)piperidin-1-yl)-N-((trans)-4-((5-fluoro-4-(3-(2-oxopyridin-1 (2H)-yl)phenyl)pyrimidin-2-yl)amino)cyclohexyl)-N-methylcyclohexane-1-carboxamide] | < 500 |  |
| O=C1CCC(Nc2ccc(C3CCN(C[C@H]4CC[C@H](C(=O)N5CCC(Nc6ncc(F)c(-c7cccc(-c8ccc[nH]c8=O)c7)n6)CC5)CC4)CC3)c(F)c2)C(=O)N1 (stereo partly drawn) [Compound 654, 3-((3-fluoro-4-(1-(((trans)-4-(4-((5-fluoro-4-(3-(2-oxo-1,2-dihydropyridin-3-yl)phenyl)pyrimidin-2-yl)amino)piperidine-1-carbonyl)cyclohexyl)methyl)piperidin-4-yl)phenyl)amino)piperidine-2,6-dione] | < 500 |  |
| O=C1CCC(Nc2ccc(N3CCC(N4CCC(C(=O)N[C@H]5CC[C@H](Nc6ncc(F)c(-c7cccc(N8CCOCC8)c7)n6)CC5)CC4)C(F)C3)c(F)c2)C(=O)N1 (stereo partly drawn) [Compound 655, 1′-(4-((2,6-dioxopiperidin-3-yl)amino)-2-fluorophenyl)-3′-fluoro-N-((1r,4r)-4-((5-fluoro-4-(3-morpholinophenyl)pyrimidin-2-yl)amino)cyclohexyl)-[1,4′-bipiperidine]-4-carboxamide] | < 500 |  |
| O=C1CCC(Nc2ccc(N3CCC(N4CCC(C(=O)N[C@H]5CC[C@H](Nc6ncc(F)c(-c7cccc(-c8ccccc8)c7)n6)CC5)CC4)C(F)C3)c(F)c2)C(=O)N1 (stereo partly drawn) [Compound 656, N-((1r,4r)-4-((4-([1,1′-biphenyl]-3-yl)-5-fluoropyrimidin-2-yl)amino)cyclohexyl)-1′-(4-((2,6-dioxopiperidin-3-yl)amino)-2-fluorophenyl)-3′-fluoro-[1,4′-bipiperidine]-4-carboxamide] | < 500 |  |
| O=C1CCC(Nc2ccc(C3CCN([C@H]4CC[C@H](NC(=O)[C@H]5CC[C@H](Nc6ncc(F)c(-c7cccc(N8CCOCC8)c7)n6)CC5)CC4)CC3)c(F)c2)C(=O)N1 (stereo partly drawn) [Compound 657, trans-(1r,4R)—N-((1r,4R)-4-(4-(4-((2,6-dioxopiperidin-3-yl)amino)-2-fluorophenyl)piperidin-1-yl)cyclohexyl)-4-((5-fluoro-4-(3-morpholinophenyl)pyrimidin-2-yl)amino)cyclohexane-1-carboxamide] | < 500 |  |
| O=C1CCC(Nc2ccc(C3CCN([C@H]4CC[C@H](NC(=O)[C@H]5CC[C@H](Nc6ncc(F)c(-c7cccc(-c8ccccc8)c7)n6)CC5)CC4)CC3)c(F)c2)C(=O)N1 (stereo partly drawn) [Compound 658, trans-(1r,4R)-4-((4-([1,1′-biphenyl]-3-yl)-5-fluoropyrimidin-2-yl)amino)-N-((1r,4R)-4-(4-(4-((2,6-dioxopiperidin-3-yl)amino)-2-fluorophenyl)piperidin-1-yl)cyclohexyl)cyclohexane-1-carboxamide] | < 500 |  |
| O=C1CCC(Nc2ccc(C3CCN([C@H]4CC[C@H](C(=O)N[C@H]5CC[C@H](Nc6ncc(F)c(-c7cccc(N8CCOCC8)c7)n6)CC5)CC4)CC3)c(F)c2)C(=O)N1 (stereo partly drawn) [Compound 659, trans-(1r,4R)-4-(4-(4-((2,6-dioxopiperidin-3-yl)amino)-2-fluorophenyl)piperidin-1-yl)-N-((1r,4R)-4-((5-fluoro-4-(3-morpholinophenyl)pyrimidin-2-yl)amino)cyclohexyl)cyclohexane-1-carboxamide] | < 500 |  |
| O=C1CCC(Nc2ccc(C3CCN([C@H]4CC[C@H](C(=O)N[C@H]5CC[C@H](Nc6ncc(F)c(-c7cccc(-c8ccccc8)c7)n6)CC5)CC4)CC3)c(F)c2)C(=O)N1 (stereo partly drawn) [Compound 660, trans-(1r,4R)—N-((1r,4R)-4-((4-([1,1′-biphenyl]-3-yl)-5-fluoropyrimidin-2-yl)amino)cyclohexyl)-4-(4-(4-((2,6-dioxopiperidin-3-yl)amino)-2-fluorophenyl)piperidin-1-yl)cyclohexane-1-carboxamide] | < 500 |  |
| O=C1CCC(Nc2ccc(N3CCN([C@H]4CC[C@H](NC(=O)[C@H]5CC[C@H](Nc6ncc(F)c(-c7cccc(N8CCOCC8)c7)n6)CC5)CC4)CC3)c(F)c2)C(=O)N1 (stereo partly drawn) [Compound 661, trans-(1r,4R)—N-((1r,4R)-4-(4-(4-((2,6-dioxopiperidin-3-yl)amino)-2-fluorophenyl)piperazin-1-yl)cyclohexyl)-4-((5-fluoro-4-(3-morpholinophenyl)pyrimidin-2-yl)amino)cyclohexane-1-carboxamide] | < 500 |  |
